Measurements as given in PubChem BioAssay AID248 (DTP/NCI, 2004).
“And” between values parts separate entries of the source, which are not always exact repeats. Identical values can stand only once. Inconclusive results and toxic doses are left out. Rule as the data show it: active = T/C of 150% or more; inactive = T/C below 125%.

Test system: L1210 leukemia ip in BDF1 mice, survival T/C
Assay: NCI In Vivo Anticancer Drug Screen. Data for tumor model L1210 Leukemia (intraperitoneal) in B6D2F1 (BDF1) mice
Conditions: endpoint: mean survival time, higher = longer survival
Procedure, shortened: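 Each compound was tested against a transplantable tumor grown in mice. The endpoint was survival, with treated animals benchmarked against vehicle controls as a simple ratio.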

[1] = dose: 100.0 mg/kg/injection, schedule: Q01DX001 (ip), vehicle: saline
[2] = dose: 200.0 mg/kg/injection, schedule: Q01DX001 (ip), vehicle: saline
[3] = dose: 400.0 mg/kg/injection, schedule: Q01DX001 (ip), vehicle: saline
[4] = dose: 25.0 mg/kg/injection, schedule: Q01DX009 (ip), vehicle: Klucel (hydroxypropylcellulose) (HPC)
[5] = dose: 100.0 mg/kg/injection, schedule: Q01DX009 (ip), vehicle: Klucel (hydroxypropylcellulose) (HPC)
[6] = dose: 200.0 mg/kg/injection, schedule: Q01DX009 (ip), vehicle: Klucel (hydroxypropylcellulose) (HPC)
[7] = dose: 200.0 mg/kg/injection, schedule: Q04DX003 (ip), vehicle: Klucel (hydroxypropylcellulose) (HPC)
[8] = dose: 400.0 mg/kg/injection, schedule: Q01DX009 (ip), vehicle: Klucel (hydroxypropylcellulose) (HPC)
[9] = dose: 400.0 mg/kg/injection, schedule: Q04DX003 (ip), vehicle: Klucel (hydroxypropylcellulose) (HPC)
[10] = dose: 50.0 mg/kg/injection, schedule: Q01DX009 (ip), vehicle: Klucel (hydroxypropylcellulose) (HPC)
[11] = dose: 100.0 mg/kg/injection, schedule: Q04DX003 (ip), vehicle: Klucel (hydroxypropylcellulose) (HPC)

Measured: T/C

Cc1ccc(Sc2cccc3c(C)c4cccc5c4c(c23)C[S+]5c2ccc(C)cc2)cc1 (stereo unspecified)
inactive: dose: 1.56 mg/kg/injection, schedule: Q01DX009 (ip), vehicle: saline with Tween-80 103 % of control | dose: 3.13 mg/kg/injection, schedule: Q01DX009 (ip), vehicle: saline with Tween-80 101 % of control | dose: 6.25 mg/kg/injection, schedule: Q01DX009 (ip), vehicle: saline with Tween-80 103 % of control

NCCN1CCN=C1C1=NCCN1CCN
inactive: dose: 100.0 mg/kg/injection, schedule: Q01DX009 (ip), vehicle: saline 98 % of control | dose: 100.0 mg/kg/injection, schedule: Q04DX003 (ip), vehicle: saline 100 % of control | dose: 200.0 mg/kg/injection, schedule: Q01DX009 (ip), vehicle: saline 93 % of control | dose: 200.0 mg/kg/injection, schedule: Q04DX003 (ip), vehicle: saline 98 % of control | dose: 400.0 mg/kg/injection, schedule: Q01DX009 (ip), vehicle: saline 98 % of control | dose: 400.0 mg/kg/injection, schedule: Q04DX003 (ip), vehicle: saline 96 % of control

Oc1cc(O)c2c(c1)OC(c1ccc(O)c(O)c1)C(O)C2c1c(O)cc(O)c2c1OC(c1ccc(O)c(O)c1)C(O)C2 (stereo unspecified)
inactive: dose: 100.0 mg/kg/injection, schedule: Q01DX009 (ip), vehicle: saline with Tween-80 101 % of control | dose: 200.0 mg/kg/injection, schedule: Q01DX009 (ip), vehicle: saline with Tween-80 97 % of control | dose: 400.0 mg/kg/injection, schedule: Q01DX009 (ip), vehicle: saline with Tween-80 93 % of control

CCCCSC(C)(C)CC
inactive: dose: 50.0 mg/kg/injection, schedule: Q01DX001 (ip), vehicle: saline 98 % of control | [1] 93 % of control | [2] 107 % of control | [3] 104 % of control

Cc1ccc(C)c(NC(=O)Nc2ccccc2F)c1
inactive: dose: 100.0 mg/kg/injection, schedule: Q01DX009 (ip), vehicle: carboxymethylcellulose (CMC) 89 % of control | dose: 200.0 mg/kg/injection, schedule: Q01DX009 (ip), vehicle: carboxymethylcellulose (CMC) 86 % of control | dose: 400.0 mg/kg/injection, schedule: Q01DX009 (ip), vehicle: carboxymethylcellulose (CMC) 87 % of control

CC(C)=CCN(CC=C(C)C)CCC(C)(C(N)=O)c1cccc2ccccc12 (stereo unspecified)
inactive: dose: 6.25 mg/kg/injection, schedule: Q01DX009 (ip), vehicle: Klucel (hydroxypropylcellulose) (HPC) 101 % of control | dose: 6.25 mg/kg/injection, schedule: Q04DX003 (ip), vehicle: Klucel (hydroxypropylcellulose) (HPC) 104 % of control | dose: 12.5 mg/kg/injection, schedule: Q01DX009 (ip), vehicle: Klucel (hydroxypropylcellulose) (HPC) 98 % of control | dose: 12.5 mg/kg/injection, schedule: Q04DX003 (ip), vehicle: Klucel (hydroxypropylcellulose) (HPC) 100 % of control | [4] 101 % of control | dose: 25.0 mg/kg/injection, schedule: Q04DX003 (ip), vehicle: Klucel (hydroxypropylcellulose) (HPC) 105 % of control

COc1cc2c(cc1Cl)nc1c(=O)[nH]c(=O)nc-1n2CCN1CCCC1
inactive: dose: 8.7 mg/kg/injection, schedule: Q01DX Z (ip), vehicle: methylcellulose (MC) 97 % of control | dose: 17.5 mg/kg/injection, schedule: Q01DX Z (ip), vehicle: methylcellulose (MC) 94 % of control | dose: 70.0 mg/kg/injection, schedule: Q01DX Z (ip), vehicle: methylcellulose (MC) 114 % of control

COc1ccc(OC)c(NC(=O)NNc2c([N+](=O)[O-])cc(C(F)(F)F)cc2[N+](=O)[O-])c1
inactive: dose: 100.0 mg/kg/injection, schedule: Q01DX009 (ip), vehicle: other 97 % of control | dose: 200.0 mg/kg/injection, schedule: Q01DX009 (ip), vehicle: other 89 % of control

NC(=S)SCCC(=O)O
inactive: [5] 96 % of control | [6] 100 % of control | [7] 93 % of control | [8] 94 % of control | [9] 92 % of control

CC(=O)OC1C=CN(C(C)=O)C(SC23CC4CC(CC(C4)C2)C3)C1O (stereo unspecified)
inactive: [5] 97 % of control | [6] 97 % of control | [8] 95 % of control

COc1cc(C(=O)Nc2ccccc2)cc(OC)c1OC
inactive: dose: 100.0 mg/kg/injection, schedule: Q04DX002 (ip), vehicle: saline with Tween-80 102 % of control | dose: 200.0 mg/kg/injection, schedule: Q04DX002 (ip), vehicle: saline with Tween-80 98 % of control | dose: 400.0 mg/kg/injection, schedule: Q04DX002 (ip), vehicle: saline with Tween-80 95 % of control

C/C=C/c1ccccc1C(C)=O
inactive: dose: 100.0 mg/kg/injection, schedule: Q04DX003 (sc), vehicle: olive oil, sesame oil, peanut oil 105 % of control | dose: 200.0 mg/kg/injection, schedule: Q04DX003 (sc), vehicle: olive oil, sesame oil, peanut oil 105 % of control | dose: 400.0 mg/kg/injection, schedule: Q04DX003 (sc), vehicle: olive oil, sesame oil, peanut oil 100 % of control

CCCCCCCCCCCCCC(S(=O)(=O)CC)S(=O)(=O)CC
inactive: dose: 100.0 mg/kg/injection, schedule: Q01DX001 (ip), vehicle: Klucel (hydroxypropylcellulose) (HPC) 89 % of control | dose: 200.0 mg/kg/injection, schedule: Q01DX001 (ip), vehicle: Klucel (hydroxypropylcellulose) (HPC) 87 % of control | dose: 400.0 mg/kg/injection, schedule: Q01DX001 (ip), vehicle: Klucel (hydroxypropylcellulose) (HPC) 87 % of control

CC(C)OC(=O)c1cc(O)c(O)c(O)c1
inactive: dose: 75.0 mg/kg/injection, schedule: Q01DX001 (ip), vehicle: saline 102 % of control | dose: 150.0 mg/kg/injection, schedule: Q01DX001 (ip), vehicle: saline 94 % of control | dose: 300.0 mg/kg/injection, schedule: Q01DX001 (ip), vehicle: saline 94 % of control

Cc1cc(C)c2ccc(Cl)nc2n1
inactive: [4] 97 % of control | [10] 99 % of control

C/C(CCC(=O)O)=N/N=C(N)N
inactive: dose: 15.0 mg/kg/injection, schedule: Q01DX Z (ip), vehicle: carboxymethylcellulose (CMC) 100 % of control | dose: 30.0 mg/kg/injection, schedule: Q01DX Z (ip), vehicle: carboxymethylcellulose (CMC) 106 % of control | dose: 60.0 mg/kg/injection, schedule: Q01DX Z (ip), vehicle: carboxymethylcellulose (CMC) 106 % of control | dose: 120.0 mg/kg/injection, schedule: Q01DX Z (ip), vehicle: carboxymethylcellulose (CMC) 95 % of control and 102 % of control | dose: 240.0 mg/kg/injection, schedule: Q01DX Z (ip), vehicle: carboxymethylcellulose (CMC) 108 % of control | dose: 480.0 mg/kg/injection, schedule: Q01DX Z (ip), vehicle: carboxymethylcellulose (CMC) 104 % of control

N#CC(c1cnc2ccccc2n1)c1cccc2ccccc12 (stereo unspecified)
inactive: [1] 94 % of control | [2] 92 % of control | [3] 97 % of control

CCOC1(OCC)C(Cl)=C(Cl)C(Cl)=C1Cl
inactive: dose: 25.0 mg/kg/injection, schedule: Q01DX005 (ip), vehicle: Klucel (hydroxypropylcellulose) (HPC) 108 % of control | [4] 110 % of control | dose: 25.0 mg/kg/injection, schedule: Q04DX002 (ip), vehicle: Klucel (hydroxypropylcellulose) (HPC) 104 % of control | dose: 50.0 mg/kg/injection, schedule: Q01DX005 (ip), vehicle: Klucel (hydroxypropylcellulose) (HPC) 102 % of control | [10] 96 % of control | dose: 50.0 mg/kg/injection, schedule: Q04DX002 (ip), vehicle: Klucel (hydroxypropylcellulose) (HPC) 104 % of control | dose: 100.0 mg/kg/injection, schedule: Q01DX005 (ip), vehicle: Klucel (hydroxypropylcellulose) (HPC) 97 % of control

OCC1OC(c2ccccc2)OC2C(CO)OC(c3ccccc3)OC12 (stereo unspecified)
inactive: dose: 100.0 mg/kg/injection, schedule: Q04DX003 (ip), vehicle: saline with Tween-80 93 % of control | dose: 200.0 mg/kg/injection, schedule: Q04DX003 (ip), vehicle: saline with Tween-80 96 % of control | dose: 400.0 mg/kg/injection, schedule: Q04DX003 (ip), vehicle: saline with Tween-80 89 % of control

CN(C)c1ccc(P(c2ccc(N(C)C)cc2)c2ccc(N(C)C)cc2)cc1
inactive: [5] 91 % of control | [11] 95 % of control | [6] 91 % of control | [7] 95 % of control | [8] 87 % of control | [9] 95 % of control

O=Cc1cc(Cl)cc(Cl)c1OC(=O)c1ccccc1
inactive: [5] 97 % of control | [6] 92 % of control

O=C1c2cccc(O)c2C(=O)c2c(O)cc(CO)cc21
inactive: [1] 98 % of control | [2] 95 % of control | [3] 95 % of control

Nc1cc(Br)cc2c1nc(NCCO)c1ccccc12
inactive: dose: 50.0 mg/kg/injection, schedule: Q04DX003 (ip), vehicle: Klucel (hydroxypropylcellulose) (HPC) 118 % of control | [11] 102 % of control | [7] 97 % of control | [9] 105 % of control
